Laboratory results reported in patent US20160279215A1, “NOVEL PEPTIDES AND COMBINATION OF PEPTIDES FOR USE IN IMMUNOTHERAPY AGAINST VARIOUS TUMORS” (immatics biotechnologies GmbH, priority 2015, published 2016).

Key:
[1] = system: CD8+ T cells of healthy HLA-A*02 donors; experiment: In vitro immunogenicity: T-cell priming with aAPCs loaded with peptide/MHC and anti-CD28, pMHC multimer readout; type: cell-based, human; details: in vitro immunogenicity, HLA-A*02 restricted peptides; percentage of positive wells among evaluable
From the text: In order to obtain information regarding the immunogenicity of the TUMAPs of the present invention, the inventors performed investigations using an in vitro T-cell priming assay based on repeated stimulations of CD8+ T cells with artificial antigen presenting cells (aAPCs) loaded with peptide/MHC complexes and anti-CD28 antibody.
In order to perform in vitro stimulations by artificial antigen presenting cells loaded with peptide-MHC complex (pMHC) and anti-CD28 antibody, the inventors first isolated CD8+ T cells from fresh HLA-A*02 leukapheresis products via positive selection using CD8 microbeads (Miltenyi Biotec, Bergisch-Gladbach, Germany) of healthy donors obtained from the University clinics Mannheim, Germany, after informed consent. PBMCs and isolated CD8+ lymphocytes were incubated in T-cell medium (TCM) until use consisting of RPMI-Glutamax (Invitrogen, Karlsruhe, Germany) supplemented with 10% heat inactivated human AB serum (PAN-Biotech, Aidenbach, Germany), 100 U/ml Penicillin/100 μg/ml Streptomycin (Cambrex, Cologne, Germany), 1 mM sodium pyruvate (CC Pro, Oberdorla, Germany), 20 μg/ml Gentamycin (Cambrex). 2.5 ng/ml IL-7 (PromoCell, Heidelberg, Germany) and 10 U/ml IL-2 (Novartis Pharma, Nürnberg, Germany) were also added to the TCM at this step. Generation of pMHC/anti-CD28 coated beads, T-cell stimulations and readout was performed in a highly defined in vitro system using four different pMHC molecules per stimulation condition and 8 different pMHC molecules per readout condition.
The purified co-stimulatory mouse IgG2a anti human CD28 Ab 9.3 (Jung et al., 1987) was chemically biotinylated using Sulfo-N-hydroxysuccinimidobiotin as recommended by the manufacturer (Perbio, Bonn, Germany). Beads used were 5.6 μm diameter streptavidin coated polystyrene particles (Bangs Laboratories, Illinois, USA).
pMHC used for positive and negative control stimulations were A*0201/MLA-001 (peptide […] (SEQ ID NO. 289) from modified Melan-A/MART-1) and A*0201/DDX5-001 ([…] from DDX5, SEQ ID NO. 290), respectively.
800.000 beads/200 μl were coated in 96-well plates in the presence of 4×12.5 ng different biotin-pMHC, washed and 600 ng biotin anti-CD28 were added subsequently in a volume of 200 μl. Stimulations were initiated in 96-well plates by co-incubating […] CD8+ T cells with 2×10^5 washed coated beads in 200 μl TCM supplemented with 5 ng/ml IL-12 (PromoCell) for 3 days at 37° C. Half of the medium was then exchanged by fresh TCM supplemented with 80 U/ml IL-2 and incubating was continued for 4 days at 37° C. This stimulation cycle was performed for a total of three times. For the pMHC multimer readout using 8 different pMHC molecules per condition, a two-dimensional combinatorial coding approach was used as previously described (Andersen et al., 2012) with minor modifications encompassing coupling to 5 different fluorochromes. Finally, multimeric analyses were performed by staining the cells with Live/dead near IR dye (Invitrogen, Karlsruhe, Germany), CD8-FITC antibody clone SK1 (BD, Heidelberg, Germany) and fluorescent pMHC multimers. For analysis, a BD LSRII SORP cytometer equipped with appropriate lasers and filters was used. Peptide specific cells were calculated as percentage of total CD8+ cells. Evaluation of multimeric analysis was done using the FlowJo software (Tree Star, Oreg., USA). In vitro priming of specific multimer+ CD8+ lymphocytes was detected by comparing to negative control stimulations.
Exemplary flow cytometry results after TUMAP-specific multimer staining for 15 peptides of the invention are shown in FIGS. 3 and 6 together with corresponding negative controls.

[2] = molecular target: T1, HLA-A*02:01 (Homo sapiens, UniProt P04439, D140Y/D185E/D98H/E176V/E277Q/G131W/G231S/I119V/I121R/I166T/I218V/L300P/L318F/N151K/N90K/P208A/P217A/Q86G/Q94H/R138H/R169H/T345S); experiment: MHC binding assay: UV-ligand exchange with β2m ELISA (peptide exchange yield); details: binding to HLA-A*02:01 evaluated by peptide exchange yield (UV-ligand exchange, β2m ELISA)
T1 construct: made in house
Procedure, shortened: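 UV-exchange pMHC monomers, 100-fold diluted → streptavidin capture 1 h 37 °C → HRP anti-β2m 2 ug/ml 1 h 37 °C → TMB, A450. Yield from HLA-A*02:01/MLA-001 monomer standard curve, 15-500 ng/ml. Only stably bound peptides keep β2m-containing complexes intact.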

| Substance | Peptide exchange [2] | Wells positive [%] [1] |
| --- | --- | --- |
| 9 (SLITGQDLLSV; listed as Homo sapiens) [compound 9] | +++ (≧50 = +++) | + (<20% = +) |
| 17 (GLLPSAESIKL; listed as Homo sapiens) [compound 17] | ++++ (≧75% = ++++) | + (<20% = +) |
| 29 (KMISAIPTL; listed as Homo sapiens) [compound 29] | ++ (≧20% = ++) | + (<20% = +) |
| 35 (VIIKGLEEI; listed as Homo sapiens) [compound 35] | ++ (≧20% = ++) | + (<20% = +) |
| 50 (ILLSVLHQL; listed as Homo sapiens) [compound 50] | +++ (≧50 = +++) | + (<20% = +) |
| 92 (RLFEEVLGV; listed as Homo sapiens) [compound 92] | ++++ (≧75% = ++++) | ++ (20%-49% = ++) |
| 101 (SLLEVNEASSV; listed as Homo sapiens) [compound 101] | +++ (≧50 = +++) | + (<20% = +) |
| 117 (TLLEGISRA; listed as Homo sapiens) [compound 117] | ++ (≧20% = ++) | ++ (20%-49% = ++) |
| 233 (SLFESLEYL; listed as Homo sapiens) [compound 233] | +++ (≧50 = +++) | + (<20% = +) |
| 242 (KLQEEIPVL; listed as Homo sapiens) [compound 242] | +++ (≧50 = +++) | + (<20% = +) |
| 254 (ALGDKFLLRV; listed as Homo sapiens) [compound 254] | ++ (≧20% = ++) | + (<20% = +) |
| 255 (FLMKNSDLYGA; listed as Homo sapiens) [compound 255] | +++ (≧50 = +++) | + (<20% = +) |
| 257 (KLIDHQGLYL; listed as Homo sapiens) [compound 257] | +++ (≧50 = +++) | + (<20% = +) |
| 260 (ALNESLVEC; listed as Homo sapiens) [compound 260] | +++ (≧50 = +++) | + (<20% = +) |
| 263 (SIIEYLPTL; listed as Homo sapiens) [compound 263] | +++ (≧50 = +++) | + (<20% = +) |
| 267 (YLLDMPLWYL; listed as Homo sapiens) [compound 267] | +++ (≧50 = +++) | + (<20% = +) |
| 275 (AVPPPPSSV; listed as Homo sapiens) [compound 275] | ++ (≧20% = ++) | ++ (20%-49% = ++) |

Further lines, with some results ahead:

| Peptide exchange [2] | Substance | Wells positive [%] [1] |
| --- | --- | --- |
| +++ (≧50 = +++) | 4 (VLFGELPAL; listed as Homo sapiens) [compound 4] | + (<20% = +) |
| +++ (≧50 = +++) | 7 (ALLQALMEL; listed as Homo sapiens) [compound 7] | ++ (20%-49% = ++) |
| +++ (≧50 = +++) | 11 (LLDPKTIFL; listed as Homo sapiens) [compound 11] | ++ (20%-49% = ++) |
| +++ (≧50 = +++) | 14 (YTFSGDVQL; listed as Homo sapiens) [compound 14] | + (<20% = +) |
| +++ (≧50 = +++) | 27 (GLLGKVTSV; listed as Homo sapiens) [compound 27] | + (<20% = +) |
| +++ (≧50 = +++) | 48 (KISDFGLATV; listed as Homo sapiens) [compound 48] | ++ (20%-49% = ++) |
| ++ (≧20% = ++) | 66 (AMFPDTIPRV; listed as Homo sapiens) [compound 66] | + (<20% = +) |
| +++ (≧50 = +++) | 77 (ALYGNVQQV; listed as Homo sapiens) [compound 77] | + (<20% = +) |
| +++ (≧50 = +++) | 89 (SLAETIFIV; listed as Homo sapiens) [compound 89] | + (<20% = +) |
| +++ (≧50 = +++) | 97 (KLFEKSTGL; listed as Homo sapiens) [compound 97] | + (<20% = +) |
| +++ (≧50 = +++) | 102 (GLYPVTLVGV; listed as Homo sapiens) [compound 102] | + (<20% = +) |
| ++ (≧20% = ++) | 121 (ALYVQAPTV; listed as Homo sapiens) [compound 121] | + (<20% = +) |
| ++ (≧20% = ++) | 157 (ILQDGQFLV; listed as Homo sapiens) [compound 157] | + (<20% = +) |
| +++ (≧50 = +++) | 166 (LLGDSSFFL; listed as Homo sapiens) [compound 166] | ++ (20%-49% = ++) |
| ++++ (≧75% = ++++) | 234 (VLLNEILEQV; listed as Homo sapiens) [compound 234] | ++ (20%-49% = ++) |
| +++ (≧50 = +++) | 236 (KMSELQTYV; listed as Homo sapiens) [compound 236] | + (<20% = +) |
| +++ (≧50 = +++) | 246 (ALAGIVTNV; listed as Homo sapiens) [compound 246] | + (<20% = +) |
| +++ (≧50 = +++) | 248 (VLMQDSRLYL; listed as Homo sapiens) [compound 248] | ++ (20%-49% = ++) |
| +++ (≧50 = +++) | 251 (LLWGNLPEI; listed as Homo sapiens) [compound 251] | ++ (20%-49% = ++) |
| +++ (≧50 = +++) | 253 (KLLAVIHEL; listed as Homo sapiens) [compound 253] | ++ (20%-49% = ++) |
| +++ (≧50 = +++) | 261 (GLAALAVHL; listed as Homo sapiens) [compound 261] | ++ (20%-49% = ++) |
| ++ (≧20% = ++) | 264 (TLHDQVHLL; listed as Homo sapiens) [compound 264] | + (<20% = +) |
